Assay results: the NIST ThermoML archive (doi:10.1021/je401120a)
± gives the expanded uncertainty stated by the source.

Columns and labels:
[1] = Liquid; for viscosity / speed of sound / mass density / electrical conductivity: 101 kPa; for speed of sound: Pulse-echo method; for mass density: Vibrating tube method; for vapor or sublimation pressure: Ebulliometric method (Recirculating still); for electrical conductivity: Crison conductimeter (model GLP31)
[2] = refractive index (Na D-line) (dimensionless); settings: 101.33 kPa, Liquid, Standard Abbe refractometry
[3] = xn = mol fraction of the nth substance listed; settings: 101 kPa, Liquid, x2 = 0; for speed of sound: Pulse-echo method; for mass density: Vibrating tube method
[4] = refractive index (Na D-line) (dimensionless); xn = mol fraction of the nth substance listed; settings: 101 kPa, Liquid, Standard Abbe refractometry, x2 = 0

| SMILES | viscosity ([1]; 293.15 K) | speed of sound ([1]; 293.15 K) | mass density ([1]; 293.15 K) | viscosity ([1]; 303.15 K) | speed of sound ([1]; 303.15 K) | mass density ([1]; 303.15 K) | viscosity ([1]; 313.15 K) | speed of sound ([1]; 313.15 K) | mass density ([1]; 313.15 K) | viscosity ([1]; 323.15 K) | speed of sound ([1]; 323.15 K) | mass density ([1]; 323.15 K) | refractive index ([2]; 293.15 K) | refractive index ([2]; 303.15 K) | refractive index ([2]; 313.15 K) | refractive index ([2]; 323.15 K) | further results |
| --- | --- | --- | --- | --- | --- | --- | --- | --- | --- | --- | --- | --- | --- | --- | --- | --- | --- |
| CO [methanol] | 0.5833 ± 0.016 mPa·s | 1118.8 ± 1.1 m/s | 791.243 ± 0.15 kg/m3 | 0.507 ± 0.014 mPa·s | 1086 ± 1.1 m/s | 781.813 ± 0.15 kg/m3 | 0.4438 ± 0.013 mPa·s | 1053.5 ± 1.1 m/s | 772.287 ± 0.15 kg/m3 | 0.3873 ± 0.011 mPa·s | 1021.5 ± 1.1 m/s | 762.828 ± 0.15 kg/m3 | 1.32843 ± 0.0004 | 1.32433 ± 0.0004 | 1.32015 ± 0.0004 | 1.3167 ± 0.0004 | vapor or sublimation pressure ([1]; 303.15 K): 21.93 ± 0.14 kPa; vapor or sublimation pressure ([1]; 323.15 K): 55.78 ± 0.27 kPa |
| CCC[n+]1ccccc1.F[B-](F)(F)F [1-propylpyridinium tetrafluoroborate] | 160 ± 13 mPa·s | 1653.9 ± 2.4 m/s | 1256.67 ± 1.4 kg/m3 | 90.75 ± 3.8 mPa·s | 1629.8 ± 2.4 m/s | 1249.54 ± 1.4 kg/m3 | 56.02 ± 0.89 mPa·s | 1606.3 ± 2.4 m/s | 1242.43 ± 1.4 kg/m3 | 36.99 ± 0.76 mPa·s | 1583.3 ± 2.3 m/s | 1235.31 ± 1.4 kg/m3 | 1.44588 ± 0.00057 | 1.44322 ± 0.00057 | 1.44057 ± 0.00057 | 1.43792 ± 0.00057 | electrical conductivity ([1]; 293.15 K): 0.302 ± 0.006 S/m; electrical conductivity ([1]; 303.15 K): 0.516 ± 0.01 S/m; electrical conductivity ([1]; 313.15 K): 0.799 ± 0.016 S/m; electrical conductivity ([1]; 323.15 K): 1.15 ± 0.023 S/m |
| CO [methanol] + CCC[n+]1ccccc1.F[B-](F)(F)F |  |  |  |  |  |  |  |  |  |  |  |  |  |  |  |  | speed of sound ([3]; 293.15 K): 1118.8 ± 1.1 m/s; mass density ([3]; 293.15 K): 791.243 ± 0.15 kg/m3; viscosity ([3]; 293.15 K): 0.5833 ± 0.016 mPa·s; speed of sound ([3]; 303.15 K): 1086 ± 1.1 m/s; mass density ([3]; 303.15 K): 781.813 ± 0.15 kg/m3; viscosity ([3]; 303.15 K): 0.507 ± 0.014 mPa·s; speed of sound ([3]; 313.15 K): 1053.5 ± 1.1 m/s; mass density ([3]; 313.15 K): 772.287 ± 0.15 kg/m3; viscosity ([3]; 313.15 K): 0.4438 ± 0.013 mPa·s; speed of sound ([3]; 323.15 K): 1021.5 ± 1.1 m/s; mass density ([3]; 323.15 K): 762.828 ± 0.15 kg/m3; viscosity ([3]; 323.15 K): 0.3873 ± 0.011 mPa·s; refractive index ([4]; 293.15 K): 1.32843 ± 0.0004; refractive index ([4]; 303.15 K): 1.32433 ± 0.0004; refractive index ([4]; 313.15 K): 1.32015 ± 0.0004; refractive index ([4]; 323.15 K): 1.3167 ± 0.0004 |
